According to patent US20240365736A1, “COMPOSITIONS AND METHODS FOR TARGETED DEGRADATION OF PROTEINS IN A PLANT CELL” (Oerth Bio LLC, priority 2021, published 2024):

System: Matricaria recutita, Diplotaxis tenuifolia, Agrostis spp., Poa annua, or Arabidopsis thaliana
Test: Plant phenotyping assay (herbicidal phenotypes, 96-well plates); further: key: '+++' is highly active; '++' is moderately active; '+' is weakly active; '−' is inactive
Format: in vivo
Settings: visual score of herbicidal phenotypes after seven days; 238, 475, 950, and 1900 g ai/ha (50-400 uM)
Description: Seeds of Matricaria recutita, Diplotaxis tenuifolia, Agrostis spp., Poa annua, or Arabidopsis thaliana were sown into 96-well plates containing 200 μl of growth media [0.5× Murashige and Skoog (MS) basal media (Sigma-Aldrich), 2.5 mM 2-(N-morpholino) ethanesulfonic acid (MES—Sigma-Aldrich), 0.7 g/L Phytagar (Invitrogen); pH 5.7]. Three to five seeds were distributed per well. Plates were placed under fifteen hours of light at 23° C., 65% humidity in a controlled environment growth chamber. After approximately three days, test compounds and controls were mixed with acetone and emulsified with an equal volume of 3% methyl ester of rapeseed oil (Mero), and applied to plants at concentrations of 238, 475, 950, and 1900 g ai/ha (50-400 uM).

## COc1cnc(OC)n2nc(NS(=O)(=O)c3c(OCCOCCOCCOCCOc4ccc5c(c4)C(=O)N(C4CCC(=O)NC4=O)C5=O)cccc3C(F)(F)F)nc12 (stereo not drawn) [Compound 4-D, N-(5,8-Dimethoxy-[1,2,4]triazolo[1,5-c]pyrimidin-2-yl)-2-(2-(2-(2-(2-((2-(2,6-dioxopiperidin-3-yl)-1,3-dioxoisoindolin-5-yl)oxy)ethoxy)ethoxy)ethoxy)ethoxy)-6-(trifluoromethyl)benzenesulfonamide]
  Plant Activity: +++

## COc1cnc(OC)n2nc(NS(=O)(=O)c3c(OCCOCCOCCOCCOCCOCCOc4cccc5c4C(=O)N(C4CCC(=O)NC4=O)C5=O)cccc3C(F)(F)F)nc12 (stereo not drawn) [Compound 4-E, N-(5,8-Dimethoxy-[1,2,4]triazolo[1,5-c]pyrimidin-2-yl)-2-((17-((2-(2,6-dioxopiperidin-3-yl)-1,3-dioxoisoindolin-4-yl)oxy)-3,6,9,12,15-pentaoxaheptadecyl)oxy)-6-(trifluoromethyl)benzenesulfonamide]
  Plant Activity: ++

## COc1cnc(OC)n2nc(NS(=O)(=O)c3c(OCCOCCOCCOCCOCCNc4cccc5c4C(=O)N(C4CCC(=O)NC4=O)C5=O)cccc3C(F)(F)F)nc12 (stereo not drawn) [Compound 4-F, N-(5,8-Dimethoxy-[1,2,4]triazolo[1,5-c]pyrimidin-2-yl)-2-((14-((2-(2,6-dioxopiperidin-3-yl)-1,3-dioxoisoindolin-4-yl)amino)-3,6,9,12-tetraoxatetradecyl)oxy)-6-(trifluoromethyl)benzenesulfonamide]
  Plant Activity: +++

## COc1cnc(OC)n2nc(NS(=O)(=O)c3c(OCCOCCOCCOCCNC(=O)COc4cccc5c4C(=O)N(C4CCC(=O)NC4=O)C5=O)cccc3C(F)(F)F)nc12 (stereo not drawn) [Compound 4-G, N-(2-(2-(2-(2-(2-(N-(5,8-Dimethoxy-[1,2,4]triazolo[1,5-c]pyrimidin-2-yl)sulfamoyl)-3-(trifluoromethyl)phenoxy)ethoxy)ethoxy)ethoxy)ethyl)-2-((2-(2,6-dioxopiperidin-3-yl)-1,3-dioxoisoindolin-4-yl)oxy)acetamide]
  Plant Activity: ++

## COc1cnc(OC)n2nc(NS(=O)(=O)c3c(OCCOCCOCCOCCOCCNC(=O)COc4cccc5c4C(=O)N(C4CCC(=O)NC4=O)C5=O)cccc3C(F)(F)F)nc12 (stereo not drawn) [Compound 4-H, N-(14-(2-(N-(5,8-Dimethoxy-[1,2,4]triazolo[1,5-c]pyrimidin-2-yl)sulfamoyl)-3-(trifluoromethyl)phenoxy)-3,6,9,12-tetraoxatetradecyl)-2-((2-(2,6-dioxopiperidin-3-yl)-1,3-dioxoisoindolin-4-yl)oxy)acetamide]
  Plant Activity: +++

## COc1cnc(OC)n2nc(NS(=O)(=O)c3c(OC4CCN(CCOCCOCCN5CCN(c6ccc7c(c6)C(=O)N(C6CCC(=O)NC6=O)C7=O)CC5)CC4)cccc3C(F)(F)F)nc12 (stereo not drawn) [Compound 4-I, N-(5,8-Dimethoxy-[1,2,4]triazolo[1,5-c]pyrimidin-2-yl)-2-((1-(2-(2-(2-(4-(2-(2,6-dioxopiperidin-3-yl)-1,3-dioxoisoindolin-5-yl)piperazin-1-yl)ethoxy)ethoxy)ethyl)piperidin-4-yl)oxy)-6-(trifluoromethyl)benzenesulfonamide]
  Plant Activity: +

## COc1cnc(OC)n2nc(NS(=O)(=O)c3c(OCCOCCOCCN4CCC(CCCN5CCN(c6ccc7c(c6)C(=O)N(C6CCC(=O)NC6=O)C7=O)CC5)CC4)cccc3C(F)(F)F)nc12 (stereo not drawn) [Compound 4-J, N-(5,8-Dimethoxy-[1,2,4]triazolo[1,5-c]pyrimidin-2-yl)-2-(2-(2-(2-(4-(3-(4-(2-(2,6-dioxopiperidin-3-yl)-1,3-dioxoisoindolin-5-yl)piperazin-1-yl)propyl)piperidin-1-yl)ethoxy)ethoxy)ethoxy)-6-(trifluoromethyl)benzenesulfonamide]
  Plant Activity: −

## COc1cnc(OC)n2nc(NS(=O)(=O)c3c(OCCOCCN4CCC(CCCN5CCN(c6ccc7c(c6)C(=O)N(C6CCC(=O)NC6=O)C7=O)CC5)CC4)cccc3C(F)(F)F)nc12 (stereo not drawn) [Compound 4-K, N-(5,8-Dimethoxy-[1,2,4]triazolo[1,5-c]pyrimidin-2-yl)-2-(2-(2-(4-(3-(4-(2-(2,6-dioxopiperidin-3-yl)-1,3-dioxoisoindolin-5-yl)piperazin-1-yl)propyl)piperidin-1-yl)ethoxy)ethoxy)-6-(trifluoromethyl)benzenesulfonamide]
  Plant Activity: +

## COc1cnc(OC)n2nc(NS(=O)(=O)c3c(OCCN4CCC(CCCN5CCN(c6ccc7c(c6)C(=O)N(C6CCC(=O)NC6=O)C7=O)CC5)CC4)cccc3C(F)(F)F)nc12 (stereo not drawn) [Compound 4-L, N-(5,8-Dimethoxy-[1,2,4]triazolo[1,5-c]pyrimidin-2-yl)-2-(2-(4-(3-(4-(2-(2,6-dioxopiperidin-3-yl)-1,3-dioxoisoindolin-5-yl)piperazin-1-yl)propyl)piperidin-1-yl)ethoxy)-6-(trifluoromethyl)benzenesulfonamide]
  Plant Activity: −

## COc1cnc(OC)n2nc(NS(=O)(=O)c3c(OCCCC4CCN(CCOCCOc5ccc6c(c5)C(=O)N(C5CCC(=O)NC5=O)C6=O)CC4)cccc3C(F)(F)F)nc12 (stereo not drawn) [Compound 4-M, N-(5,8-Dimethoxy-[1,2,4]triazolo[1,5-c]pyrimidin-2-yl)-2-(3-(1-(2-(2-((2-(2,6-dioxopiperidin-3-yl)-1,3-dioxoisoindolin-5-yl)oxy)ethoxy)ethyl)piperidin-4-yl)propoxy)-6-(trifluoromethyl)benzenesulfonamide]
  Plant Activity: +

## COc1cnc(OC)n2nc(NS(=O)(=O)c3c(OCCCC4CCN(CCOCCOCCOc5ccc6c(c5)C(=O)N(C5CCC(=O)NC5=O)C6=O)CC4)cccc3C(F)(F)F)nc12 (stereo not drawn) [Compound 4-N, N-(5,8-Dimethoxy-[1,2,4]triazolo[1,5-c]pyrimidin-2-yl)-2-(3-(1-(2-(2-(2-((2-(2,6-dioxopiperidin-3-yl)-1,3-dioxoisoindolin-5-yl)oxy)ethoxy)ethoxy)ethyl)piperidin-4-yl)propoxy)-6-(trifluoromethyl)benzenesulfonamide]
  Plant Activity: −

## COc1cnc(OC)n2nc(NS(=O)(=O)c3c(OC4CCN(CCOCCOCCOCCN5CCN(c6ccc7c(c6)C(=O)N(C6CCC(=O)NC6=O)C7=O)CC5)CC4)cccc3C(F)(F)F)nc12 (stereo not drawn) [Compound 4-O, N-(5,8-Dimethoxy-[1,2,4]triazolo[1,5-c]pyrimidin-2-yl)-2-((1-(2-(2-(2-(2-(4-(2-(2,6-dioxopiperidin-3-yl)-1,3-dioxoisoindolin-5-yl)piperazin-1-yl)ethoxy)ethoxy)ethoxy)ethyl)piperidin-4-yl)oxy)-6-(trifluoromethyl)benzenesulfonamide]
  Plant Activity: −

## COc1cnc(OC)n2nc(NS(=O)(=O)c3c(OCCOCCN4CCN(c5ccc6c(c5)C(=O)N(C5CCC(=O)NC5=O)C6=O)CC4)cccc3C(F)(F)F)nc12 (stereo not drawn) [Compound 4-P, N-(5,8-dimethoxy-[1,2,4]triazolo[1,5-c]pyrimidin-2-yl)-2-(2-(2-(4-(2-(2,6-dioxopiperidin-3-yl)-1,3-dioxoisoindolin-5-yl)piperazin-1-yl)ethoxy)ethoxy)-6-(trifluoromethyl)benzenesulfonamide]
  Plant Activity: +

## COc1cnc(OC)n2nc(NS(=O)(=O)c3c(OCCOCCOCCOCCCN4CCN(c5ccc6c(c5)C(=O)N(C5CCC(=O)NC5=O)C6=O)CC4)cccc3C(F)(F)F)nc12 (stereo not drawn) [Compound 4-Q, N-(5,8-Dimethoxy-[1,2,4]triazolo[1,5-c]pyrimidin-2-yl)-2-(2-(2-(2-(3-(4-(2-(2,6-dioxopiperidin-3-yl)-1,3-dioxoisoindolin-5-yl)piperazin-1-yl)propoxy)ethoxy)ethoxy)ethoxy)-6-(trifluoromethyl)benzenesulfonamide]
  Plant Activity: ++

## COc1cnc(OC)n2nc(NS(=O)(=O)c3c(OCCOCCOCCOCCOCCCN4CCN(c5ccc6c(c5)C(=O)N(C5CCC(=O)NC5=O)C6=O)CC4)cccc3C(F)(F)F)nc12 (stereo not drawn) [Compound 4-R, N-(5,8-Dimethoxy-[1,2,4]triazolo[1,5-c]pyrimidin-2-yl)-2-((15-(4-(2-(2,6-dioxopiperidin-3-yl)-1,3-dioxoisoindolin-5-yl)piperazin-1-yl)-3,6,9,12-tetraoxapentadecyl)oxy)-6-(trifluoromethyl)benzenesulfonamide]
  Plant Activity: −

## COc1cnc(OC)n2nc(NS(=O)(=O)c3c(OCCOCCN4CC(OCCCN5CCN(c6ccc7c(c6)C(=O)N(C6CCC(=O)NC6=O)C7=O)CC5)C(F)(F)C4)cccc3C(F)(F)F)nc12 (stereo not drawn) [Compound 4-S, N-(5,8-Dimethoxy-[1,2,4]triazolo[1,5-c]pyrimidin-2-yl)-2-(2-(2-(4-(3-(4-(2-(2,6-dioxopiperidin-3-yl)-1,3-dioxoisoindolin-5-yl)piperazin-1-yl)propoxy)-3,3-difluoropyrrolidin-1-yl)ethoxy)ethoxy)-6-(trifluoromethyl)benzenesulfonamide]
  Plant Activity: ++

## CCO/N=C(\CC)C1=C(O)CC(c2ccc(OCCOCCOCCOc3ccc4c(c3)C(=O)N(C3CCC(=O)NC3=O)C4=O)cc2)CC1=O (stereo not drawn) [Compound 5, 2-(2,6-dioxo-3-piperidyl)-5-[2-[2-[2-[4-[4-[(E)-N-ethoxy-C-ethyl-carbonimidoyl]-3-hydroxy-5-oxo-cyclohex-3-en-1-yl]phenoxy]ethoxy]ethoxy]ethoxy]isoindoline-1,3-dione]
  Plant Activity: +

## CCC(=O)C1=C(O)CC(c2ccc(OCCOCCOCCN3CCN(c4ccc5c(c4)C(=O)N(C4CCC(=O)NC4=O)C5=O)CC3)cc2)CC1=O (stereo not drawn) [Compound 5-A, 2-(2,6-Dioxopiperidin-3-yl)-5-(4-(2-(2-(2-((5′-hydroxy-3′-oxo-4′-propionyl-1′,2′,3′,6′-tetrahydro-[1,1′-biphenyl]-4-yl)oxy)ethoxy)ethoxy)ethyl)piperazin-1-yl)isoindoline-1,3-dione]
  Plant Activity: −
